Common to all, as to assay type: in vivo
The subject of one experiment is Leucania separata. The experiment in a line: Insecticidal activity against Leucania separata, Airbrush spraying of corn leaf segments. To be noted: Mythimna separata, foliar, 72 h; dose 0.05 mg/L, three days after administration, 3rd instar larvae; read-out: lethality rate to Leucania separata. How it is done: (§1) The compound to be determined was dissolved in a mixed solvent of acetone/methanol (1:1), followed by dilution with water containing 0.1% (wt) Tween 80 to a desired concentration.
(§2) The activities of the respective compounds against Leucania separata, Plutella xylostella, and Chilo suppressalis were determined by Airbrush spraying method.
(§3) The determination method was as follows: Corn leaves were cut into 2 cm long segments; the pressure of Airbrush spraying was 10 psi (about 0.7 kg/cm^2); both sides of each leaf segment were sprayed with 0.5 mL of the compound solution to be tested. After drying in the shade, ten 3nd instar larvae were inoculated for each treatment, and each treatment was replicated 3 times. After treatment, they were cultured in an observation room at a temperature of 25° C. and a relative humidity of 60-70%, and the number of surviving insects was examined and the mortality was calculated three days after administration.

In the next experiment the test system is Plutella xylostella. The experiment in a line: Insecticidal activity against Plutella xylostella, Airbrush spraying of cabbage leaf discs. To be noted: foliar, 72 h; for pest or weed control at 0.313 µg/mL: dose 0.313 mg/L; for pest or weed control at 0.313 µg/mL / pest or weed control at 0.156 µg/mL: three days after administration, 3rd instar larvae, read-out: lethality rate to Plutella xylostella; for mortality at 0.156 µg/mL: 0.156 mg/L, read-out: Mortality (%, 3 days after administration) 0.156 mg/L; for mortality at 0.156 µg/mL / mortality at 0.313 µg/mL / mortality at 0.625 µg/mL / mortality at 1.25 µg/mL: parallel comparative test; for mortality at 0.313 µg/mL: 0.313 mg/L, read-out: Mortality (%, 3 days after administration) 0.313 mg/L; for mortality at 0.625 µg/mL: 0.625 mg/L, read-out: Mortality (%, 3 days after administration) 0.625 mg/L; for mortality at 1.25 µg/mL: 1.25 mg/L, read-out: Mortality (%, 3 days after administration) 1.25 mg/L; for pest or weed control at 0.156 µg/mL: dose 0.156 mg/L. How it is done:
as §1, §2
as §3, with “Cabbage” for “Corn”, “made” for “cut”, “into leaf discs with a diameter of” for “into”, “by using a hole puncher;” for “long segments;”, “disc” for “segment”, “3rd” for “3nd”

Another experiment concerns Tetranychus cinnabarinus. Kind of experiment: Acaricidal activity against Tetranychus cinnabarinus in greenhouse, bean seedling spraying. To be noted: solution concentration 5 mg/L, adult mites, after 72 hours, read-out: lethality rate to Tetranychus cinnabarinus. How it is done:
A bean seedling with two true leaves was taken for inoculating 30-40 adult mites of Tetranychus cinnabarinus. After examining the cardinal number, the whole seedling was treated by spraying with a hand-held sprayer, each treatment being replicated 3 times, and then placed in a standard observation room. The number of surviving mites was examined after 72 hours, and the mortality was calculated.

In the next experiment the test system is Chilo suppressalis. Kind of experiment: Insecticidal activity against Chilo suppressalis, spraying of rice seedlings. To be noted: 72 h; for mortality at 0.25 µg/mL: 0.25 mg/L, read-out: Mortality (%, 3 days after administration) 0.25 mg/L; for mortality at 0.25 µg/mL / mortality at 0.5 µg/mL / mortality at 1 µg/mL / mortality at 5 µg/mL: parallel comparative test; for mortality at 0.5 µg/mL: 0.5 mg/L, read-out: Mortality (%, 3 days after administration) 0.5 mg/L; for mortality at 1 µg/mL: 1 mg/L, read-out: Mortality (%, 3 days after administration) 1 mg/L; for mortality at 5 µg/mL: 5 mg/L, read-out: Mortality (%, 3 days after administration) 5 mg/L; for pest or weed control at 1 µg/mL: dose 1 mg/L; for pest or weed control at 1 µg/mL / pest or weed control at 0.5 µg/mL: 3 days after administration, 3rd instar larvae, read-out: lethality rate to Chilo suppressalis; for pest or weed control at 0.5 µg/mL: dose 0.5 mg/L. How it is done:
as §1, §2
The determination method was as follows: 1) Preparation of rice seedlings: rice plants were cultivated in a plastic cup with a diameter of 4.5 cm and a height of 4 cm in a thermostatic chamber (temperature 26-28° C., relative humidity 60-80%, illumination 16 hL: 8 hD), and when the rice plants were developed to have 4-5 leaves, strong seedlings with identical growth vigour were selected for chemical treatment, and each treatment was replicated 3 times. 2) Preparation of insects to be tested: Chilo suppressalis, 3rd instar larvae, continuous lab rearing. 3) Inoculation of insects by spraying rice plant stems: The whole rice seedlings were sprayed evenly by using the spraying method, with 15 mL of the compound solution for each treatment. Firstly, the blank control was treated, and then the above procedure was replicated according to the order of test concentration from low to high. After rice seedlings were spray-treated, they were placed in the shade to dry, and the stems about 5 cm from the stem bases were cut off to feed the insects to be tested. Glass culture dishes with a diameter of 90 mm were prepared; each dish was padded with a filter paper at the bottom and added with water to keep moisture; about 5 rice stems were put into each dish and inoculated with 10 larvae, and each culture dish was then sealed with a non-woven and cultured in a thermostatic chamber. The number of residual live insects was examined 3 days after administration.

Molecules are shown by their SMILES.

In the case of `Cc1cc(C2=NOC(c3cc(Cl)cc(Cl)c3)(C(F)(F)F)C2)ccc1C(=O)N(CC(=O)NCC(F)(F)F)C(=O)C1CC1` (stereo not shown) [Compound 1], the pest or weed control at 0.05 µg/mL in the experiment on Leucania separata was > 90%. Also, the pest or weed control at 0.313 µg/mL with Plutella xylostella was > 90%. Also, the pest or weed control at 5 µg/mL with Tetranychus cinnabarinus was ≥ 90%. For the same molecule, in the experiment on Chilo suppressalis, the mortality at 0.25 µg/mL was found to be 73.3%, the mortality at 0.5 µg/mL came to 83.3%, the mortality at 1 µg/mL worked out at 100% and the mortality at 5 µg/mL turned out to be 100%. In the experiment with Chilo suppressalis, the pest or weed control at 1 µg/mL was > 90%.

With `Cc1cc(C2=NOC(c3cc(Cl)c(F)c(Cl)c3)(C(F)(F)F)C2)ccc1C(=O)N(CC(=O)NCC(F)(F)F)C(=O)C1CC1` (stereo not shown) [Compound 2], the pest or weed control at 0.05 µg/mL with Leucania separata is > 90%. For the same molecule, the pest or weed control at 0.313 µg/mL in the experiment on Plutella xylostella is > 90%. Moreover, the pest or weed control at 5 µg/mL in the experiment on Tetranychus cinnabarinus was ≥ 90%. Moreover, the pest or weed control at 1 µg/mL in the experiment with Chilo suppressalis is > 90%.

Consider `COCC(=O)N(CC(=O)NCC(F)(F)F)C(=O)c1ccc(C2=NOC(c3cc(Cl)cc(Cl)c3)(C(F)(F)F)C2)cc1C` (stereo not shown) [Compound 19], for which the pest or weed control at 0.05 µg/mL with Leucania separata is > 90%. Further, in the experiment with Plutella xylostella, the mortality at 0.156 µg/mL is 100%, the mortality at 0.313 µg/mL was 100%, the mortality at 0.625 µg/mL was 100% and the mortality at 1.25 µg/mL came to 100%. In the experiment with Plutella xylostella, the pest or weed control at 0.156 µg/mL is > 90% and the pest or weed control at 0.313 µg/mL was > 90%. Moreover, the pest or weed control at 5 µg/mL in the experiment on Tetranychus cinnabarinus was ≥ 90%. Also, in the experiment on Chilo suppressalis, the mortality at 0.25 µg/mL is 86.7%, the mortality at 0.5 µg/mL was 100%, the mortality at 1 µg/mL worked out at 100% and the mortality at 5 µg/mL is 100%. Further, in the experiment on Chilo suppressalis, the pest or weed control at 0.5 µg/mL was > 90% and the pest or weed control at 1 µg/mL is > 90%.

For the molecule `CCOCC(=O)N(CC(=O)NCC(F)(F)F)C(=O)c1ccc(C2=NOC(c3cc(Cl)cc(Cl)c3)(C(F)(F)F)C2)cc1C` (stereo not shown) [Compound 21], the pest or weed control at 0.05 µg/mL in the experiment with Leucania separata is > 90%. Besides, in the experiment on Plutella xylostella, the pest or weed control at 0.156 µg/mL is > 90% and the pest or weed control at 0.313 µg/mL was > 90%. Moreover, the pest or weed control at 5 µg/mL with Tetranychus cinnabarinus was ≥ 90%. Further, in the experiment on Chilo suppressalis, the pest or weed control at 0.5 µg/mL is > 90% and the pest or weed control at 1 µg/mL is > 90%.

Take `CCOCC(=O)N(CC(=O)NCC(F)(F)F)C(=O)c1ccc(C2=NOC(c3cc(Cl)c(F)c(Cl)c3)(C(F)(F)F)C2)cc1C` (stereo not shown) [Compound 22]: the pest or weed control at 0.05 µg/mL in the experiment with Leucania separata is > 90%. Besides, in the experiment with Plutella xylostella, the pest or weed control at 0.156 µg/mL is > 90% and the pest or weed control at 0.313 µg/mL was > 90%. The pest or weed control at 5 µg/mL in the experiment with Tetranychus cinnabarinus is ≥ 90%. In the experiment with Chilo suppressalis, the pest or weed control at 1 µg/mL is > 90%.

Regarding `CCCCOCC(=O)N(CC(=O)NCC(F)(F)F)C(=O)c1ccc(C2=NOC(c3cc(Cl)cc(Cl)c3)(C(F)(F)F)C2)cc1C` (stereo not shown) [Compound 27], in the experiment with Leucania separata, the pest or weed control at 0.05 µg/mL is > 90%. In the experiment with Plutella xylostella, the pest or weed control at 0.156 µg/mL was > 90% and the pest or weed control at 0.313 µg/mL was > 90%. Further, the pest or weed control at 5 µg/mL in the experiment on Tetranychus cinnabarinus was ≥ 90%. In addition, in the experiment with Chilo suppressalis, the pest or weed control at 0.5 µg/mL is > 90% and the pest or weed control at 1 µg/mL is > 90%.

For `COCCC(=O)N(CC(=O)NCC(F)(F)F)C(=O)c1ccc(C2=NOC(c3cc(Cl)cc(Cl)c3)(C(F)(F)F)C2)cc1C` (stereo not shown) [Compound 31], in the experiment with Leucania separata, the pest or weed control at 0.05 µg/mL was > 90%. Moreover, in the experiment on Plutella xylostella, the mortality at 0.156 µg/mL worked out at 100%, the mortality at 0.313 µg/mL turned out to be 100%, the mortality at 0.625 µg/mL stood at 100% and the mortality at 1.25 µg/mL was determined as 100%. Besides, in the experiment with Plutella xylostella, the pest or weed control at 0.156 µg/mL is > 90% and the pest or weed control at 0.313 µg/mL is > 90%. Moreover, in the experiment with Tetranychus cinnabarinus, the pest or weed control at 5 µg/mL was ≥ 90%. Moreover, in the experiment with Chilo suppressalis, the mortality at 0.25 µg/mL stood at 80%, the mortality at 0.5 µg/mL amounted to 96.7%, the mortality at 1 µg/mL amounted to 100% and the mortality at 5 µg/mL was 100%. For the same molecule, in the experiment on Chilo suppressalis, the pest or weed control at 0.5 µg/mL is > 90% and the pest or weed control at 1 µg/mL was > 90%.

On to `CCOCCC(=O)N(CC(=O)NCC(F)(F)F)C(=O)c1ccc(C2=NOC(c3cc(Cl)cc(Cl)c3)(C(F)(F)F)C2)cc1C` (stereo not shown) [Compound 33], for which the pest or weed control at 0.05 µg/mL in the experiment on Leucania separata is > 90%. Also, in the experiment on Plutella xylostella, the pest or weed control at 0.156 µg/mL is > 90% and the pest or weed control at 0.313 µg/mL was > 90%. In addition, the pest or weed control at 5 µg/mL in the experiment with Tetranychus cinnabarinus was ≥ 90%. In the experiment on Chilo suppressalis, the pest or weed control at 0.5 µg/mL was > 90% and the pest or weed control at 1 µg/mL was > 90%.

For the molecule `CCOCCC(=O)N(CC(=O)NCC(F)(F)F)C(=O)c1ccc(C2=NOC(c3cc(Cl)c(F)c(Cl)c3)(C(F)(F)F)C2)cc1C` (stereo not shown) [Compound 34], in the experiment on Leucania separata, the pest or weed control at 0.05 µg/mL is > 90%. Further, in the experiment on Plutella xylostella, the pest or weed control at 0.156 µg/mL is > 90% and the pest or weed control at 0.313 µg/mL is > 90%. Also, the pest or weed control at 5 µg/mL with Tetranychus cinnabarinus is ≥ 90%. Besides, the pest or weed control at 1 µg/mL with Chilo suppressalis was > 90%.

Consider `COC(=O)N(CC(=O)NCC(F)(F)F)C(=O)c1ccc(C2=NOC(c3cc(Cl)cc(Cl)c3)(C(F)(F)F)C2)cc1C` (stereo not shown) [KC1, reference compound], for which, in the experiment with Plutella xylostella, the mortality at 0.156 µg/mL amounted to 20%, the mortality at 0.313 µg/mL came to 36.7%, the mortality at 0.625 µg/mL is 70% and the mortality at 1.25 µg/mL amounted to 100%. The pest or weed control at 5 µg/mL in the experiment with Tetranychus cinnabarinus amounted to 0%. In addition, in the experiment on Chilo suppressalis, the mortality at 0.25 µg/mL was determined as 0%, the mortality at 0.5 µg/mL is 0%, the mortality at 1 µg/mL stood at 0% and the mortality at 5 µg/mL is 10%.

As for `CC(=O)N(CC(=O)NCC(F)(F)F)C(=O)c1ccc(C2=NOC(c3cc(Cl)cc(Cl)c3)(C(F)(F)F)C2)cc1C` (stereo not shown) [KC2, reference compound], in the experiment with Chilo suppressalis, the mortality at 0.25 µg/mL is 0%, the mortality at 0.5 µg/mL came out at 53.3%, the mortality at 1 µg/mL turned out to be 100% and the mortality at 5 µg/mL was 100%.

Turning to `CCC(=O)N(CC(=O)NCC(F)(F)F)C(=O)c1ccc(C2=NOC(c3cc(Cl)cc(Cl)c3)(C(F)(F)F)C2)cc1C` (stereo not shown) [KC3, reference compound], in the experiment with Chilo suppressalis, the mortality at 0.25 µg/mL stood at 0%, the mortality at 0.5 µg/mL came out at 30%, the mortality at 1 µg/mL was 100% and the mortality at 5 µg/mL is 100%.

The values are drawn from patent US12371410B2, “Isoxazoline compounds and use thereof” (METISA BIOTECHNOLOGY CO., LTD, priority 2019, dated 2025).
